According to publication PMC3297008, “Novel Marine Phenazines as Potential Cancer Chemopreventive and Anti-Inflammatory Agents” (Marine Drugs, 2012):
Where two headings read alike, the source gives them in different places.

How the values were obtained:
iNOS mRNA expression = iNOS mRNA expression in LPS-treated RAW 264.7 cells (real time quantitative PCR); type: cell-based; conditions: 50 µM
Text: Figure 2 Effect of phenazines on COX-2 (black) and iNOS (gray) mRNA expression in RAW 264.7 cells. Total RNA was isolated using the TRIZOL® Reagent method (Invitrogen) from RAW 264.7 cells (2 × 10^5 cells/well) after treatment with samples. cDNA was synthesized using the RT^2 First Strand Kit (C-03, SA Biosciences) protocol. cDNA was used for quantitative real time PCRs with fluorescent Power SyBR® Green PCR master mix (Applied Biosystems), employing GAPDH, iNOS, COX-2 specific primers, and a 7300 Real Time PCR System (Applied Biosystems). The results were derived from two independent RNA preparations employing identical triplicates in each analysis and quantitated using GAPDH as the internal control, following the manufacturer’s instructions. (A) GAPDH standard curve for quantitation of iNOS and COX-2 expression; (B) Levels of COX-2 (black) and iNOS (gray) mRNA expression. The concentration and duration of treatment had no significant effect on the viability of Raw 264.7 cells.
Total mRNA samples were isolated, and cDNA was amplified with specific primers, using GAPDH as housekeeping gene. LPS induced the expression of COX-2 and iNOS mRNA by approximately 11- and 24-fold, respectively. […]
RAW 264.7 cells (2 × 10^5 cells/well) were treated with test samples and total RNA was isolated with TRIZOL® Reagent (Invitrogen). […] The results were derived from two independent RNA preparations employing identical triplicates in each analysis and quantified using GAPDH as the internal control, following the manufacturer’s instructions. The fluorescence intensity (Rn) corresponding to the cycle of threshold value (Ct) is used to quantitate a given mRNA, employing the GAPDH standard curve (Figure 3A). The equation Y = −3.9408 X + 31.791 was used to quantify the relative mRNA content, where Y represents the number of cycles corresponding to the Ct (i.e., fluorescence intensity for a given mRNA species), and X represents the log copy number (C0) from which the relative content of mRNA was quantitated. […]

[1] = test system: NO production in LPS-induced RAW 264.7 cells; test: LPS-induced NO production in RAW 264.7 cells (Griess reagent); conditions: for NO % inhibition (50 µM): LPS-induced RAW 264.7 cells; for inhibition at 50 µM / IC50: Mus musculus; for inhibition at 50 µM: RAW264.7, read-out: NO % inhibition (50 µM), LPS-induced RAW 264.7 cells, 50 µM; for IC50: RAW264.7, read-out: NO IC50
Description: The amount of nitrite was measured using the Griess reagent to assess the NO production [47, 48]. […] The cells were treated with various concentrations of compounds dissolved in phenol-red free DMEM for 30 min followed by 1 μg/mL of LPS treatment for 24 h. […] The standard curve was created by using known concentrations of sodium nitrite.

P388 cells = test system: P388 cells; design: method as in PMID 2753825; conditions: cited from earlier work
L1210 cells = test system: L1210 cells; design: method as in PMID 2753825; conditions: cited from earlier work
5-α-reductase [2] = test system: 5-α-reductase; design: method as in PMID 2503481; conditions: derived from rat prostate; cited from earlier work
5-α-reductase [3] = test system: 5-α-reductase; design: method as in PMID 2503481; conditions: derived from dog prostate; cited from earlier work
5-α-reductase [4] = test system: 5-α-reductase; design: method as in PMID 2503481; conditions: derived from human prostate; cited from earlier work

Compound	suppression of iNOS mRNA expression (iNOS mRNA expression) [%]	NO % inhibition (50 µM) [1] [%]	inhibition at 50 µM [1] [%]	IC50 [1] [µM]	growth inhibition of P388 cells in culture (P388 cells)	growth inhibition of L1210 cells in culture (L1210 cells)	inhibition of 5-α-reductase (5-α-reductase [2])	inhibition of 5-α-reductase (5-α-reductase [3])	inhibition of 5-α-reductase (5-α-reductase [4])
CC(C)=CCn1c2ccc(Br)c(=O)c-2nc2ccccc21 [Phenazine 2]	43	98.1 ± 0.5	> 90	15.1 ± 2.7	–	–	–	–	–
CC1=C(Cn2c3cccc(=O)c-3nc3ccccc32)CCC(C)(C)C1 [Lavanducyanin 3, lavanducyanin]	46	97 ± 0.7	> 90	8 ± 0.39	strongly inhibits the growth	strongly inhibits the growth	competitively inhibits	competitively inhibits	competitively inhibits
CC1=C(Cn2c3ccc(Br)c(=O)c-3nc3ccccc32)CCC(C)(C)C1 [Phenazine 1]	21	40.1 ± 5	40	> 48.6	–	–	–	–	–
